Measurements as given in patent US8192962B2, “Processes for detecting toxic substances” (Daikin Industries, Ltd., priority 2001, dated 2012).

Test system: Mitochondria-located protein genes
Experiment: DNA chip mRNA expression in yeast, mitochondria-located protein genes (Table 2)
Type: cell-based, Saccharomyces cerevisiae S288C
Conditions: cells incubated two hours with the chemical substance
Procedure, shortened: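 Cells were grown at 25° C. in YPD, treated at logarithmic phase for 2 h with a chemical at a concentration inhibiting growth but not causing death, and compared with untreated cultures. Labeled cDNA was hybridized to a DNA chip carrying all yeast genes, and the expression ratio was taken from scanner fluorescence.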

Oc1cc(Cl)c(Cl)cc1Cl [(6), 2,4,5-trichlorophenol]
The level of expressed mRNA in the presence of chemical substance/The level of expressed mRNA in the absence of chemical substance (yeast gene YAL039C): 0.8
The level of expressed mRNA in the presence of chemical substance/The level of expressed mRNA in the absence of chemical substance (yeast gene YBL022C): 1.2
The level of expressed mRNA in the presence of chemical substance/The level of expressed mRNA in the absence of chemical substance (yeast gene YBL030C): 1.1
The level of expressed mRNA in the presence of chemical substance/The level of expressed mRNA in the absence of chemical substance (yeast gene YBL038W): 0.7
The level of expressed mRNA in the presence of chemical substance/The level of expressed mRNA in the absence of chemical substance (yeast gene YBL099W): 0.9
The level of expressed mRNA in the presence of chemical substance/The level of expressed mRNA in the absence of chemical substance (yeast gene YBR003W): 1.2
The level of expressed mRNA in the presence of chemical substance/The level of expressed mRNA in the absence of chemical substance (yeast gene YBR044C): 1.0
The level of expressed mRNA in the presence of chemical substance/The level of expressed mRNA in the absence of chemical substance (yeast gene YBR091C): 0.7
The level of expressed mRNA in the presence of chemical substance/The level of expressed mRNA in the absence of chemical substance (yeast gene YBR122C): 1.1
The level of expressed mRNA in the presence of chemical substance/The level of expressed mRNA in the absence of chemical substance (yeast gene YBR185C): 1.2
The level of expressed mRNA in the presence of chemical substance/The level of expressed mRNA in the absence of chemical substance (yeast gene YBR221C): 1.7
The level of expressed mRNA in the presence of chemical substance/The level of expressed mRNA in the absence of chemical substance (yeast gene YBR251W): 2.0
The level of expressed mRNA in the presence of chemical substance/The level of expressed mRNA in the absence of chemical substance (yeast gene YBR282W): 1.4
The level of expressed mRNA in the presence of chemical substance/The level of expressed mRNA in the absence of chemical substance (yeast gene YCL057W): 1.8
The level of expressed mRNA in the presence of chemical substance/The level of expressed mRNA in the absence of chemical substance (yeast gene YCR046C): 0.8
The level of expressed mRNA in the presence of chemical substance/The level of expressed mRNA in the absence of chemical substance (yeast gene YCR083W): 2.4
The level of expressed mRNA in the presence of chemical substance/The level of expressed mRNA in the absence of chemical substance (yeast gene YDL067C): 0.9
The level of expressed mRNA in the presence of chemical substance/The level of expressed mRNA in the absence of chemical substance (yeast gene YDL181W): 1.2
The level of expressed mRNA in the presence of chemical substance/The level of expressed mRNA in the absence of chemical substance (yeast gene YDL198C): 0.8
The level of expressed mRNA in the presence of chemical substance/The level of expressed mRNA in the absence of chemical substance (yeast gene YDR079W): 1.7
The level of expressed mRNA in the presence of chemical substance/The level of expressed mRNA in the absence of chemical substance (yeast gene YDR178W): 2.1
The level of expressed mRNA in the presence of chemical substance/The level of expressed mRNA in the absence of chemical substance (yeast gene YDR231C): 2.2
The level of expressed mRNA in the presence of chemical substance/The level of expressed mRNA in the absence of chemical substance (yeast gene YDR258C): 2.4
The level of expressed mRNA in the presence of chemical substance/The level of expressed mRNA in the absence of chemical substance (yeast gene YDR298C): 1.2
The level of expressed mRNA in the presence of chemical substance/The level of expressed mRNA in the absence of chemical substance (yeast gene YDR347W): 1.2
The level of expressed mRNA in the presence of chemical substance/The level of expressed mRNA in the absence of chemical substance (yeast gene YDR377W): 1.3
The level of expressed mRNA in the presence of chemical substance/The level of expressed mRNA in the absence of chemical substance (yeast gene YDR529C): 0.8
The level of expressed mRNA in the presence of chemical substance/The level of expressed mRNA in the absence of chemical substance (yeast gene YEL024W): 1.1
The level of expressed mRNA in the presence of chemical substance/The level of expressed mRNA in the absence of chemical substance (yeast gene YEL039C): 1.5
The level of expressed mRNA in the presence of chemical substance/The level of expressed mRNA in the absence of chemical substance (yeast gene YER178W): 2.5
The level of expressed mRNA in the presence of chemical substance/The level of expressed mRNA in the absence of chemical substance (yeast gene YFL016C): 1.3
The level of expressed mRNA in the presence of chemical substance/The level of expressed mRNA in the absence of chemical substance (yeast gene YGL018C): 0.4
The level of expressed mRNA in the presence of chemical substance/The level of expressed mRNA in the absence of chemical substance (yeast gene YGL187C): 1.1
The level of expressed mRNA in the presence of chemical substance/The level of expressed mRNA in the absence of chemical substance (yeast gene YGL191W): 1.6
The level of expressed mRNA in the presence of chemical substance/The level of expressed mRNA in the absence of chemical substance (yeast gene YGR008C): 2.9
The level of expressed mRNA in the presence of chemical substance/The level of expressed mRNA in the absence of chemical substance (yeast gene YGR028W): 1.5
The level of expressed mRNA in the presence of chemical substance/The level of expressed mRNA in the absence of chemical substance (yeast gene YGR062C): 0.9
The level of expressed mRNA in the presence of chemical substance/The level of expressed mRNA in the absence of chemical substance (yeast gene YGR076C): 1.2
The level of expressed mRNA in the presence of chemical substance/The level of expressed mRNA in the absence of chemical substance (yeast gene YGR082W): 1.1
The level of expressed mRNA in the presence of chemical substance/The level of expressed mRNA in the absence of chemical substance (yeast gene YGR174C): 1.4
The level of expressed mRNA in the presence of chemical substance/The level of expressed mRNA in the absence of chemical substance (yeast gene YGR244C): 2.6
The level of expressed mRNA in the presence of chemical substance/The level of expressed mRNA in the absence of chemical substance (yeast gene YHR008C): 1.0
The level of expressed mRNA in the presence of chemical substance/The level of expressed mRNA in the absence of chemical substance (yeast gene YIL155C): 1.4
The level of expressed mRNA in the presence of chemical substance/The level of expressed mRNA in the absence of chemical substance (yeast gene YJL096W): 1.0
The level of expressed mRNA in the presence of chemical substance/The level of expressed mRNA in the absence of chemical substance (yeast gene YJL102W): 1.6
The level of expressed mRNA in the presence of chemical substance/The level of expressed mRNA in the absence of chemical substance (yeast gene YJL133W): 0.5
The level of expressed mRNA in the presence of chemical substance/The level of expressed mRNA in the absence of chemical substance (yeast gene YJL166W): 0.7
The level of expressed mRNA in the presence of chemical substance/The level of expressed mRNA in the absence of chemical substance (yeast gene YJL180C): 1.3
The level of expressed mRNA in the presence of chemical substance/The level of expressed mRNA in the absence of chemical substance (yeast gene YJR045C): 1.2
The level of expressed mRNA in the presence of chemical substance/The level of expressed mRNA in the absence of chemical substance (yeast gene YJR077C): 0.9
